Numbers after ± are expanded uncertainties.
Columns and labels:
[1] = Molar enthalpy of transition or fusion; settings: Crystal; DSC
[2] = Crystal; DTA

In the case of `CCOc1nc2cccc(C(=O)OC(C)OC(=O)OC3CCCCC3)c2n1Cc1ccc(-c2ccccc2)c(-c2nnn[nH]2)c1` (configuration not stated), the “Molar enthalpy of transition or fusion” value [1] is reported as 6.63 ± 0.189 kcal/mol and the Normal melting temperature [2] is reported as 169 ± 1 °C.
